ChEMBL document CHEMBL1150615, “Swinhoeiamide A, a new highly active calyculin derivative from the marine sponge Theonella swinhoei” (2002)
Converted amounts (≈) assume the structure as drawn.

Columns and labels:
Format in all cases: functional
Candida albicans = assay: Antifungal activity against Candida albicans by serial dilution assay
Spodoptera littoralis [1] = assay: Insecticidal activity against Spodoptera littoralis larvae dosed into hemolymph injection measured per 1000 mg of larval body weight measured after 48 hrs
Spodoptera littoralis [2] = assay: Insecticidal activity against Spodoptera littoralis larvae after 6 days by chronic feeding assay; conditions: 144 h
Cladosporium cucumerinum = assay: Antifungal activity against Cladosporium cucumerinum at 25 nmol by bioautographic method
Aspergillus fumigatus = assay: Antifungal activity against Aspergillus fumigatus by serial dilution assay
Spodoptera littoralis [3] = assay: Insecticidal activity against Spodoptera littoralis larvae after 5 days by topical contact assay

SMILES | MIC (Candida albicans) [µg/mL] | LD50 (Spodoptera littoralis [1]) [µg] | LC50 (Spodoptera littoralis [2]) [µg/mL] | inhibition zone (IZ) (Cladosporium cucumerinum) [mm] | MIC (Aspergillus fumigatus) [µg/mL] | LD50 (Spodoptera littoralis [3]) [µg]
CO[C@H]1C[C@]2(O[C@H]([C@@H](C[C@H](O)[C@H](C)[C@H](O)[C@H](C)/C=C(C)/C(C)=C/CC/C(C)=C\C(N)=O)OC)[C@H](OP(=O)(O)O)C2(C)C)O[C@H](C/C=C/c2coc(C)n2)[C@H]1C [SWINHOEIAMIDE A] | 1.2 (≈ 1.51 µM) | 0.98 | 2.98 (≈ 3.74 µM) | 14 | 1 (≈ 1.25 µM) | 10
COC[C@@H]([C@H](O)[C@H](O)C(=O)NCC[C@H](C)c1nc(/C=C/C[C@@H]2O[C@]3(C[C@@H](O)[C@@H]2C)O[C@H]([C@H](C[C@H](O)[C@H](C)[C@H](O)[C@H](C)/C=C(C)/C(C)=C/C=C/C(C)=C\C#N)OC)[C@H](OP(=O)(O)O)C3(C)C)co1)N(C)C [CALYCULIN A] | – | 1 | – | – | – | –
